Laboratory results taken from US20060069132A1, “Azolecarboxamide herbicides” (priority 2004, published 2006).

Columns and labels:
[1] = test system: barnyardgrass; test: Test B pre-/postemergence herbicide test; type: in vivo, Echinochloa crus-galli
Description: (§1) Seeds selected from barnyardgrass (Echinochloa crus-galli (L.) Beauv.), Surinam grass (Urochloa decumbens (Staph) R. D. Webster, previously named Brachiaria decumbens Stapf), cocklebur (Xanthium strumarium L.), corn (Zea mays L.), large crabgrass (Digitaria sanguinalis (L.) Scop.), giant foxtail (Setaria faberi Herim.), lambsquarters (Chenopodium album L.), morningglory (Ipomoea coccinea L.), pigweed (Amaranthus retroflexus L.), rice (Oryza sativa L.) and velvetleaf (Abutilon theophrasti Medik.) were planted and treated preemergence with test chemicals formulated in a non-phytotoxic solvent mixture which included a surfactant.
(§2) At the same time, plants selected from these crop and weed species and also blackgrass (Alopecurus myosuroides Huds.), wheat (Triticum aestivum L.) and wild oat (Avena fatua L.) were treated with postemergence applications of test chemicals formulated in the same manner. Plants ranged in height from 2 to 18 cm (1- to 4-leaf stage) for postemergence treatments. Plant species in the flooded paddy test consisted of rice (Oryza sativa L.), small flower umbrella sedge (Cyperus difformis L.), ducksalad (Heteranthera limosa (Sw.) Willd.) and barnyardgrass (Echinochloa crus-galli (L.) Beauv.) grown to the 2-leaf stage for testing. Treated plants and controls were maintained in a greenhouse for 13 to 15 days, after which time all species were compared to controls and visually evaluated. Plant response ratings, summarized in Table B, are based on a scale of 0 to 100 where 0 is no effect and 100 is complete control. A dash (-) response means no test result.

[2] = test system: Surinam grass; test: Test B pre-/postemergence herbicide test; type: in vivo, Urochloa decumbens
Description: as §1, §2

[3] = test system: cocklebur; test: Test B pre-/postemergence herbicide test; type: in vivo, Xanthium strumarium
Description: as §1, §2

[4] = test system: corn; test: Test B pre-/postemergence herbicide test; type: in vivo, Zea mays
Description: as §1, §2

[5] = test system: large crabgrass; test: Test B pre-/postemergence herbicide test; type: in vivo, Digitaria sanguinalis
Description: as §1, §2

[6] = test system: giant foxtail; test: Test B pre-/postemergence herbicide test; type: in vivo, Setaria faberi
Description: as §1, §2

[7] = test system: lambsquarters; test: Test B pre-/postemergence herbicide test; type: in vivo, Chenopodium album
Description: as §1, §2

[8] = test system: morningglory; test: Test B pre-/postemergence herbicide test; type: in vivo, Ipomoea coccinea
Description: as §1, §2

[9] = test system: pigweed; test: Test B pre-/postemergence herbicide test; type: in vivo, Amaranthus retroflexus
Description: as §1, §2

[10] = test system: velvetleaf; test: Test B pre-/postemergence herbicide test; type: in vivo, Abutilon theophrasti
Description: as §1, §2

[11] = test system: blackgrass; test: Test B postemergence herbicide test; type: in vivo, Alopecurus myosuroides
Description: as §2

[12] = test system: wheat; test: Test B postemergence herbicide test; type: in vivo, Triticum aestivum; design: key to Wheat plant response rating: 0 = no effect, 100 = complete control
Description: as §2

[13] = test system: wild oat; test: Test B postemergence herbicide test; type: in vivo, Avena fatua; settings: scale 0 (no effect) to 100 (complete control)
Description: as §2

[14] = test system: rice; test: Test B flooded paddy test; type: in vivo, Oryza sativa; settings: 1000 g ai/ha, scale 0 to 100 (0 no effect, 100 complete control)
Description: as §2

[15] = test system: small flower umbrella sedge; test: Test B flooded paddy test; type: in vivo, Cyperus difformis; settings: 1000 g ai/ha, scale 0 to 100 (0 no effect, 100 complete control)
Description: as §2

[16] = test system: ducksalad; test: Test B flooded paddy test; type: in vivo, Heteranthera limosa; settings: 1000 g ai/ha, scale 0 to 100 (0 no effect, 100 complete control)
Description: as §2

[17] = test system: barnyardgrass; test: Test B flooded paddy test; type: in vivo, Echinochloa crus-galli; settings: 1000 g ai/ha, scale 0 to 100 (0 no effect, 100 complete control)
Description: as §2

[18] = 500 g ai/ha, visual rating 0-100, 0 no effect, 100 complete control, preemergence
[19] = Postemergence, 500 g ai/ha, visual rating after 13 to 15 days, scale 0 (no effect) to 100 (complete control)
[20] = postemergence, 125 g ai/ha, visual rating, scale 0 (no effect) to 100 (complete control)
[21] = preemergence, 125 g ai/ha, 0 to 100 scale, 0 is no effect, 100 is complete control
[22] = 125 g ai/ha, 0 is no effect, 100 is complete control, preemergence
[23] = 125 g ai/ha, visual rating, scale 0 (no effect) to 100 (complete control), postemergence
[24] = Postemergence, 500 g ai/ha, scale 0 (no effect) to 100 (complete control)
[25] = 500 g ai/ha, scale 0 to 100, 0 no effect, 100 complete control, preemergence
[26] = 125 g ai/ha, visual rating, postemergence
[27] = postemergence, 500 g ai/ha, scale 0 to 100, 0 is no effect, 100 is complete control

CCCn1nc(C(C)(C)C)cc1C(=O)Nc1cccc(C(C)=NO)c1 [Compound 113]
Plant response rating, Barnyardgrass [1, 18]: 90
Plant response rating, Barnyardgrass [1, 19]: 80
Barnyardgrass plant response rating [1, 20]: 30
Plant response rating, Barnyardgrass [1, 21]: 60
Plant response rating, Surinam Grass [2, 18]: 10
Plant response rating, Surinam Grass [2, 19]: 60
Surinam Grass plant response rating [2, 20]: 40
Plant response rating, Surinam Grass [2, 21]: 10
Plant response rating, Cocklebur [3, 18]: 20
Plant response rating, Cocklebur [3, 19]: 100
Cocklebur plant response rating [3, 20]: 100
Plant response rating, Cocklebur [3, 21]: 0
Plant response rating, Corn [4, 18]: 0
Plant response rating, Corn [4, 19]: 30
Corn plant response rating [4, 20]: 30
Plant response rating, Corn [4, 21]: 0
Plant response rating, Crabgrass, Large [5, 18]: 100
Plant response rating, Crabgrass, Large [5, 19]: 80
Crabgrass, Large plant response rating [5, 20]: 30
Plant response rating, Crabgrass, Large [5, 21]: 100
Plant response rating, Foxtail, Giant [6, 18]: 30
Plant response rating, Foxtail, Giant [6, 19]: 40
Foxtail, Giant plant response rating [6, 20]: 30
Plant response rating, Foxtail, Giant [6, 21]: 10
Plant response rating, Lambsquarters [7, 18]: 100
Plant response rating, Lambsquarters [7, 19]: 100
Lambsquarters plant response rating [7, 20]: 90
Plant response rating, Lambsquarters [7, 21]: 80
Plant response rating, Morningglory [8, 18]: 50
Plant response rating, Morningglory [8, 19]: 100
Morningglory plant response rating [8, 20]: 20
Plant response rating, Morningglory [8, 21]: 0
Plant response rating, Pigweed [9, 18]: 100
Plant response rating, Pigweed [9, 19]: 100
Pigweed plant response rating [9, 20]: 90
Plant response rating, Pigweed [9, 21]: 0
Plant response rating, Velvetleaf [10, 18]: 20
Plant response rating, Velvetleaf [10, 19]: 60
Velvetleaf plant response rating [10, 20]: 20
Plant response rating, Velvetleaf [10, 21]: 20
Plant response rating, Blackgrass [11, 19]: 20
Blackgrass plant response rating [11, 20]: 10
Plant response rating, Wheat [12, 19]: 30
Wheat plant response rating [12, 20]: 10
Plant response rating, Oat, Wild ([13]; Postemergence, 500 g ai/ha, visual rating after 13 to 15 days): 60
Oat, Wild plant response rating ([13]; postemergence, 125 g ai/ha, visual rating): 40
Rice plant response rating ([14]; visual rating, 13 to 15 days): 60
Sedge, Umbrella plant response rating ([15]; visual rating, 13 to 15 days): 90
Ducksalad plant response rating ([16]; visual rating, 13 to 15 days): 90
Barnyardgrass plant response rating ([17]; visual rating, 13 to 15 days): 70

Cc1nn(C(C)C)nc1C(=O)Nc1cc(C(=O)N2CC=CC2)ccc1F [Compound 402]
Plant response rating (0 to 100 scale), Barnyardgrass [1, 22]: 0
Barnyardgrass plant response rating [1, 23]: 0
Barnyardgrass plant response rating [1, 24]: 0
Plant response rating (0 to 100 scale), Surinam Grass [2, 22]: 0
Surinam Grass plant response rating [2, 23]: 0
Surinam Grass plant response rating [2, 24]: 20
Plant response rating (0 to 100 scale), Cocklebur [3, 22]: 0
Cocklebur plant response rating [3, 23]: 0
Cocklebur plant response rating [3, 24]: 0
Plant response rating (0 to 100 scale), Corn [4, 22]: 0
Corn plant response rating [4, 23]: 0
Corn plant response rating [4, 24]: 0
Plant response rating (0 to 100 scale), Crabgrass, Large [5, 22]: 0
Crabgrass, Large plant response rating [5, 23]: 0
Crabgrass, Large plant response rating [5, 24]: 10
Plant response rating (0 to 100 scale), Foxtail, Giant [6, 22]: 0
Foxtail, Giant plant response rating [6, 23]: 0
Foxtail, Giant plant response rating [6, 24]: 20
Plant response rating (0 to 100 scale), Lambsquarters [7, 22]: 0
Lambsquarters plant response rating [7, 23]: 30
Lambsquarters plant response rating [7, 24]: 40
Plant response rating (0 to 100 scale), Morningglory [8, 22]: 0
Morningglory plant response rating [8, 23]: 0
Morningglory plant response rating [8, 24]: 0
Plant response rating (0 to 100 scale), Pigweed [9, 22]: 0
Pigweed plant response rating [9, 23]: 0
Pigweed plant response rating [9, 24]: 10
Plant response rating (0 to 100 scale), Velvetleaf [10, 22]: 0
Velvetleaf plant response rating [10, 23]: 20
Velvetleaf plant response rating [10, 24]: 30
Blackgrass plant response rating [11, 23]: 0
Blackgrass plant response rating [11, 24]: 0
Wheat plant response rating [12, 23]: 0
Wheat plant response rating [12, 25]: 10
Wheat plant response rating [12, 24]: 0
Oat, Wild plant response rating [13, 26]: 0
Oat, Wild plant response rating ([13]; Postemergence, 500 g ai/ha): 0
Rice plant response rating [14]: 10
Sedge, Umbrella plant response rating [15]: 70
Ducksalad plant response rating [16]: 20
Barnyardgrass plant response rating [17]: 10

CCc1nn(C(C)(C)C)nc1C(=O)Nc1cccc(C(=O)N(C)C)c1 [Compound 364]
Plant response rating (0 to 100 scale), Barnyardgrass [1, 22]: 100
Barnyardgrass plant response rating [1, 23]: 10
Barnyardgrass plant response rating [1, 27]: 70
Plant response rating (0 to 100 scale), Surinam Grass [2, 22]: 100
Surinam Grass plant response rating [2, 23]: 30
Plant response rating (0 to 100 scale), Cocklebur [3, 22]: 70
Cocklebur plant response rating [3, 23]: 40
Cocklebur plant response rating [3, 27]: 50
Plant response rating (0 to 100 scale), Corn [4, 22]: 80
Corn plant response rating [4, 23]: 10
Corn plant response rating [4, 27]: 40
Plant response rating (0 to 100 scale), Crabgrass, Large [5, 22]: 100
Crabgrass, Large plant response rating [5, 23]: 30
Crabgrass, Large plant response rating [5, 27]: 70
Plant response rating (0 to 100 scale), Foxtail, Giant [6, 22]: 100
Foxtail, Giant plant response rating [6, 23]: 10
Foxtail, Giant plant response rating [6, 27]: 50
Plant response rating (0 to 100 scale), Lambsquarters [7, 22]: 100
Lambsquarters plant response rating [7, 23]: 70
Plant response rating (0 to 100 scale), Morningglory [8, 22]: 70
Morningglory plant response rating [8, 23]: 20
Plant response rating (0 to 100 scale), Pigweed [9, 22]: 100
Pigweed plant response rating [9, 23]: 40
Plant response rating (0 to 100 scale), Velvetleaf [10, 22]: 100
Velvetleaf plant response rating [10, 23]: 20
Blackgrass plant response rating [11, 23]: 30
Blackgrass plant response rating [11, 27]: 80
Wheat plant response rating [12, 23]: 10
Wheat plant response rating [12, 25]: 100
Oat, Wild plant response rating [13, 26]: 20
Rice plant response rating [14]: 90
Sedge, Umbrella plant response rating [15]: 100
Ducksalad plant response rating [16]: 100
Barnyardgrass plant response rating [17]: 90
